The results in this text go back to US4734421A, “Anti-inflammatory substituted 2-benzyl-mercapto-imidazole and pyrimidine derivatives compositions and method of use therefor” (Merck & Co., Inc., priority 1986, dated 1988).

Assay [1] concerns Mouse Ear Edema. The assay is described as follows: Topical Mouse Ear Assay (Mouse Ear Edema). Particulars: Table 1, Dosage 300 μg, irritant (PMA or AA) not given. Type of assay: in vivo. The procedure:
(§1) The rat foot edema assay CFE and the topical mouse ear assay were used to evaluate the anti-inflammatory activity of the novel compounds of the present invention. These are established assay for screening non steroridal anti-inflammatory agents.
The right ears of mice (5 mice per group) were treated topically with either 5μ PMA ([…]) or 1000μ AA alone or with the test compound in 25μ of vehicle. The vehicle was water/pyridine/acetone (1:2:97). A control group of mice received the vehicle only. The mice were allowed food and water ad libitum during the treatment period; 2 hours for AA and 4 hours for PMA. The mice were sacrificed by cervical dislocation and a 6 mm diameter disc of tissue punched from both the treated and untreated ears. The tissue biopsies were immediately weighed and the weight increase of the treated ear relative to the weight of the untreated ear determined.
Results: The effect of representative compounds on Mouse Ear Edema

The subject of assay [2] is Rat Foot Edema. The assay is described as follows: Rat Foot Edema Assay (CFE). It is filed as in vivo. Particulars: for Edema (% inhibition): Table 2a, Dosage (μg) 30. The procedure:
as §1
Representative compounds of formula (I) or (II) were tested according to the well-established procedures of rat foot edema assay published in 1962 by C. A. Winter, E. A. Risley and G. W. Nuss, Proc Soc Exp Biol Med. III, 544 (1962).
Results: The effect of representative compounds on Rat Foot Edema

Take `COc1ccc(O)c(CSc2ncc(C)n2C)c1` [drawing 6]: the “Edema (% inhibition)” value in assay [1] worked out at 65%.
In the case of `COc1ccc(O)c(CSc2nc(C)c[nH]2)c1`, the “Edema (% inhibition)” value in assay [2] is given as 74%.
Same read-out and setting: the value for `COc1ccc(O)c(CSc2ncccn2)c1` [drawing 15] was 3%.
As to `COc1ccc(O)c(CSc2nc3ccccc3[nH]2)c1` [drawing 7], in assay [1], the “Edema (% inhibition)” value is given as 76%.
On the same count and under the same terms, to `COc1ccc(O)c(CSc2nccn2C)c1` [drawing 5] belongs 45%; to `COc1ccc(O)c(CSc2ncccn2)c1` [drawing 8], 32%.
With `COc1ccc(O)c(CSc2ncc(C)n2C)c1` [drawing 11], the “Edema (% inhibition)” value in assay [2] is reported as 54%.
Regarding `Cc1cnc(SCc2cc3c(cc2O)CCCO3)n1C`, in assay [2] (Table 2b, Dosage (mpk) 30), the “% Inhibition” value was determined as 42%.
Take `COc1ccc(O)c(CSc2nccn2C)c1` [drawing 10]: the “Edema (% inhibition)” value in assay [2] was determined as 74%.
On the same count and under the same terms, the value for `COc1ccc(O)c(CSc2nc(C)cn2C)c1` was 77%; that for `COc1ccc(O)c(CSc2nc3ccccc3[nH]2)c1` [drawing 14] was 21%.

For orientation: % Inhibition means the relative decrease from the control value, in per cent. Low readings indicate a response near the control, high ones a response far below the control.
